# Literature values as cited in publication PMC7463651, “Phase I/Ib Study of Tenalisib (RP6530), a Dual PI3K δ/γ Inhibitor in Patients with Relapsed/Refractory T-Cell Lymphoma” (Cancers, 2020).
# Read-outs that look alike come from different tables or passages of the source.
# Test system: PTCL/CTCL
# Parameters: method as in PMID 21245435, PMID 28641053, PMID 26101246
# Settings: cited from earlier work
Molecule,Overall response rate (ORR) (FDA approved single agent) [%],Overall response rate (ORR) (in CD30+ T-cells) [%]
O=C(/C=C/c1cccc(S(=O)(=O)Nc2ccccc2)c1)NO [belinostat],26,–
brentuximab vedotin,–,68
C/C=C1\NC(=O)[C@H]2CSSCC/C=C/[C@H](CC(=O)N[C@H](C(C)C)C(=O)N2)OC(=O)[C@H](C(C)C)NC1=O [romidepsin],25,–
C#CCC(Cc1cnc2nc(N)nc(N)c2n1)c1ccc(C(=O)N[C@@H](CCC(=O)O)C(=O)O)cc1 (stereo partly shown) [pralatrexate],29,–
